Among the data in doi:10.64898/2025.12.15.694443v1 (biorxiv, 2025) are IC50 and AC50 values, retold here.

The target in experiment [1] is T1, ARAF^SSDD (ARAF^SSDD/MEK1) (Homo sapiens, UniProt P10398, G300S/Y301D/Y302D). As to the kind of experiment: TR-FRET MEK phosphorylation assay, bell-shaped fit. Type of experiment: biochemical.
For experiment [2], the target named is T1, ARAF^SSDD (ARAF^SSDD/MEK1). Put plainly: biochemical.
Experiment [3] addresses T2, CRAF^SSDD (CRAF^SSDD/MEK1) (Homo sapiens, UniProt P04049, Y340D/Y341D). As to the kind of experiment: TR-FRET MEK phosphorylation assay, bell-shaped fit. In kind it is biochemical. For orientation: In TR-FRET formats the signal depends on donor and acceptor labels being close together.
In experiment [4] the target is T2, CRAF^SSDD (CRAF^SSDD/MEK1). Put plainly: biochemical.
In experiment [5] the target is T3, CRAF monomer complex (CRAF/MEK1 SASA) (Homo sapiens, UniProt P04049). As to the kind of experiment: TR-FRET MEK phosphorylation assay, bell-shaped fit. In kind it is biochemical.
T3 sequence (P04049 324-618): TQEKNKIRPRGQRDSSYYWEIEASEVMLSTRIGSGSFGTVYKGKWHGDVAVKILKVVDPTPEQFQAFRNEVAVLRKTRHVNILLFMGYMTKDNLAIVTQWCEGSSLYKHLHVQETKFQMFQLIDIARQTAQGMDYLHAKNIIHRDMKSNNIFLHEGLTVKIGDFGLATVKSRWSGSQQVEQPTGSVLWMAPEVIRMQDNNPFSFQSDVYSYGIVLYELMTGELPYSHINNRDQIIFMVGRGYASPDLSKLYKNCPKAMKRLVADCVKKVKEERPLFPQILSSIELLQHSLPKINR
T3 sequence (Q02750 whole entry S218A/S222A partner): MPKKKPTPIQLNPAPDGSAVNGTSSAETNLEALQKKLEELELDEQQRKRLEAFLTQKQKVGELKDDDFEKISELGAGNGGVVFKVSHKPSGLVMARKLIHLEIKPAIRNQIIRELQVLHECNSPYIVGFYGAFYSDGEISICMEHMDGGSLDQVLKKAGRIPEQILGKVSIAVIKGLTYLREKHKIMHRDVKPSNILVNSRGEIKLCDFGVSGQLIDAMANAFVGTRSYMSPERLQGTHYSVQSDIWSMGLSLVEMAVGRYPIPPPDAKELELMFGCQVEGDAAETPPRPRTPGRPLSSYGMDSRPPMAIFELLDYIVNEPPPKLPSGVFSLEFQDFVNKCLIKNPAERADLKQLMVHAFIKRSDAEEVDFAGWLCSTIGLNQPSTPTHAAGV
Experiment [6] concerns the target BRAF monomer complex (BRAF/MEK1 SASA) (Homo sapiens, UniProt P15056). As to the kind of experiment: TR-FRET MEK phosphorylation assay, bell-shaped fit. Type of experiment: biochemical. As to conditions: […] enzyme, […] ATP, […] MEK-B, […] DMSO; unreliable.
For experiment [7], the target named is T4, ARAF monomer complex (ARAF/MEK1 SASA) (Homo sapiens, UniProt P10398). As to the kind of experiment: TR-FRET MEK phosphorylation assay, bell-shaped fit. Type of experiment: biochemical.
T4 sequence (P10398 282-579): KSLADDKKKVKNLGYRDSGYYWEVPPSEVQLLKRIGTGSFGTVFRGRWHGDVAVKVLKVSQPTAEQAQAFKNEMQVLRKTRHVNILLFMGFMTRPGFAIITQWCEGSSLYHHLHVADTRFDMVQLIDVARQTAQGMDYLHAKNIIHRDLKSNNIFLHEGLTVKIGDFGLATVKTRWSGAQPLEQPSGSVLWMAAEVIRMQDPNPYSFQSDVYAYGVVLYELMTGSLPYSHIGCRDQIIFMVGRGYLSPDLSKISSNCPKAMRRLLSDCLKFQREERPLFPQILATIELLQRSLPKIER
T4 sequence (Q02750 whole entry S218A/S222A partner): as the sequence (Q02750 whole entry S218A/S222A partner) above
Experiment [8] addresses T4, ARAF monomer complex (ARAF/MEK1 SASA). Put plainly: TR-FRET MEK phosphorylation assay, bell-shaped fit. In kind it is biochemical. The source holds these as a separate data set.
Experiment [9] concerns the target T3, CRAF monomer complex (CRAF/MEK1 SASA). Put plainly: TR-FRET MEK phosphorylation assay, bell-shaped fit. In kind it is biochemical. This is another data set of the same source.

T2 sequence (P04049 314-618 Y340D/Y341D): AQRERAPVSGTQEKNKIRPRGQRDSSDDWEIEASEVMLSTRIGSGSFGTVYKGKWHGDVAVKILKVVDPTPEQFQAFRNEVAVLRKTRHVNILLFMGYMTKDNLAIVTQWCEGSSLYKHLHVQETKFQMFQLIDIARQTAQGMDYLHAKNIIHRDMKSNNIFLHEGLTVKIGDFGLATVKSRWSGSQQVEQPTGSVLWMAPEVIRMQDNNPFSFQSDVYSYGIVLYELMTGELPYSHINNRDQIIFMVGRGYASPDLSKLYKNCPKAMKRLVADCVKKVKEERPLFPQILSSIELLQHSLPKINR
T2 sequence (Q02750 whole entry S218A/S222A partner): as the sequence (Q02750 whole entry S218A/S222A partner) above
T1 sequence (P10398 274-606 G300S/Y301D/Y302D): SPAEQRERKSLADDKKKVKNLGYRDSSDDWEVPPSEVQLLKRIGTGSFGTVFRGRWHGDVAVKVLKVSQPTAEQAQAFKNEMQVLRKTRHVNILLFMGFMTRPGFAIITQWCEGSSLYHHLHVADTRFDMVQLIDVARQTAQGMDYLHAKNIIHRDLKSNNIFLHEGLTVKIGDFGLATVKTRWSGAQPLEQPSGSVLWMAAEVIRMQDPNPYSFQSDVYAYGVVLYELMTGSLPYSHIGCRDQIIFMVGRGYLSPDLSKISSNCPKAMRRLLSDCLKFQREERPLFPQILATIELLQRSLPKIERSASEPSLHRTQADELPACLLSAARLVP
T1 sequence (Q02750 whole entry S218A/S222A partner): as the sequence (Q02750 whole entry S218A/S222A partner) above
Sequence of BRAF monomer complex (BRAF/MEK1 SASA) (P15056 445-723): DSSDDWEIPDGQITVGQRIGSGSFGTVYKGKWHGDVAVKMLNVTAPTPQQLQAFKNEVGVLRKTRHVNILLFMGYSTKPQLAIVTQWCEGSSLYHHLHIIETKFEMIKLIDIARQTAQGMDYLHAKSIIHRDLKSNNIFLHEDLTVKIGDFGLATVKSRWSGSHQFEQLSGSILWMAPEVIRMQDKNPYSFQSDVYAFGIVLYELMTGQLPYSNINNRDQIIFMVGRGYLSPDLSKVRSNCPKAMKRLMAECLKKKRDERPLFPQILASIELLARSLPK
Sequence of BRAF monomer complex (BRAF/MEK1 SASA) (Q02750 whole entry S218A/S222A partner): as the sequence (Q02750 whole entry S218A/S222A partner) above

`Cc1ccc(NC(=O)c2cccc(C(C)(C)C#N)c2)cc1Nc1ccc2ncn(C)c(=O)c2c1` [AZ628]: the IC50 in experiment [1] was found to be 44.4 ± 17.6 nM. Also, in experiment [2], half-maximal activity (AC50) was put at 1.72 ± 1.24 nM.
The molecule `Cc1ccc2c(Nc3cccc(Cl)c3F)nccc2c1NC(=O)c1csc2c(N)ncnc12` [Belvarafenib] registered an IC50 in experiment [3] of 34.6 ± 5.15 nM. The molecule further came in with a half-maximal activity concentration (AC50) in experiment [4] of 0.07 ± 0.06 nM.
Take `Cc1ccc(NC(=O)c2ccnc(C(F)(F)F)c2)cc1-c1cc(OCCO)nc(N2CCOCC2)c1` [Naporafenib]: the IC50 turned out to be 673 ± 488 nM in [1] and 79.2 ± 24.1 nM in experiment [3]. The AC50 amounted to 0.06 ± 0.04 nM in [4] and 13.3 ± 5.15 nM in experiment [2].
As for `CN(C)CCOc1ccc(-c2nc(-c3ccncc3)c(-c3ccc4c(c3)CC/C4=N\O)[nH]2)cc1` [SB590885], the IC50 was above 10000 nM in experiment [5]; 1915 ± 889 nM in [6]; above 10000 nM in [1]; above 10000 nM in [8]; above 10000 nM in experiment [3]. Moreover, the AC50 is 11.7 ± 14.3 nM in [7], 242 ± 19.5 nM in experiment [9], 3.46 ± 1.49 nM in experiment [4] and 7.62 ± 2.83 nM in experiment [2].

By IC50 is commonly meant the midpoint of a concentration-inhibition curve. A lower IC50 goes with higher potency. One may read the AC50 as the concentration giving half of the maximal activity seen. Low readings indicate activity at low concentration, high ones activity only at high concentration.
